Reference: patent publication EP0840781B1, “METHODS AND DEVICES FOR THE REMOVAL OF PSORALENS FROM BLOOD PRODUCTS” (Cerus Corporation, priority 1995, dated 1996)
Marks after values point to notes of the source that are not given here.

Key:
[1] = test system: Chinese hamster ovary (CHO) cells; test: In vitro genotoxicity screen in CHO cells (toxic dose); format: cell-based; settings: approximately 3 hours exposure in the dark, dilutions 1-1000 µg/ml
From the text: The positive control was methylmethane sulfonate.
Coverslips were mounted with Permount.

[2] = test system: GMP-140 expression on platelets; test: GMP-140 (p-selectin) expression on platelets, CD62 antibody, flow cytometry; format: cell-based, human; settings: T = test unit (150 µM S-59, 3 Joules/cm^2 UVA, RD 8 hours on day 1)
Method: To measure the effects of the present compounds and methods of decontamination on platelet function using these four indicators, four samples were prepared for each compound tested, two control samples and two containing compound. […] These were each transferred under sterile conditions to 50 ml centrifuge tubes, then aliquots of each unit were transferred into a second set of 50 ml sterile centrifuge tubes. […] The samples were pipetted gently up and down to mix. […] Samples were treated in one of two different sized bags, having either 3 ml or 8 ml capacity. […] For each compound tested, two control samples without compound were prepared by again removing aliquots of platelet concentrate (17 ml if using an 8 ml bag, 4 ml if using a 3 ml bag) from the same one of the first set of 50 ml centrifuge tubes from which the compound sample was drawn, and dividing into Medibags, as before. […]

platelets [3] = test: Platelet aggregation (ADP and collagen, aggregometer); format: cell-based, human; settings: for (%) Aggregation: T = test unit (150 µM S-59, 3 Joules/cm^2 UVA, RD 8 hours on day 1)
Method: To measure the effects of the present compounds and methods of decontamination on platelet function using these four indicators, four samples were prepared for each compound tested, two control samples and two containing compound. […] These were each transferred under sterile conditions to 50 ml centrifuge tubes, then aliquots of each unit were transferred into a second set of 50 ml sterile centrifuge tubes. […] The samples were pipetted gently up and down to mix. […] Samples were treated in one of two different sized bags, having either 3 ml or 8 ml capacity. […] For each compound tested, two control samples without compound were prepared by again removing aliquots of platelet concentrate (17 ml if using an 8 ml bag, 4 ml if using a 3 ml bag) from the same one of the first set of 50 ml centrifuge tubes from which the compound sample was drawn, and dividing into Medibags, as before. […] Then all experimental and control Medibags were placed on a platelet shaker for storage for 5 days.

platelets [4] = test: ATP content / ATP secretion of platelets; format: cell-based, human; settings: T = test unit (150 µM S-59, 3 Joules/cm^2 UVA, RD 8 hours on day 1)
Method: Samples were removed from the units after 24 hours and were analyzed for platelet count and pH. After 5 days, samples were taken and also analyzed for platelet count and pH, as well as ATP content and activation by GMP-140. Controls included a sample of PCD-treated PC without adsorbent (no-adsorbent control) and a sample of PC that was not treated. The results for each of the platelet function assays are present in Table G (the "*" In Table G indicates a contact time of three hours only). TABLE G
(§1) For the evaluation of in vitro platelet function, platelet samples were withdrawn from both the control and test units before treatment and after treatment on days 2, 5, and 7. The following parameters were analyzed: pH, pO2, pCO2, bicarbonate concentration, platelet count, morphology, aggregation, platelet shape change, hypotonic shock response, lactate production, glucose consumption, ATP secretion, p-selectin expression, and microvesicle formation. Several of these assays, including pH, morphology score, platelet shape change, and hypotonic shock response, have been reported in the literature to correlate with in- vivo post-transfusion recovery and survival. The Student's paired t-test was used for statistical analysis.

platelets [5] = test: Platelet morphology score; format: cell-based, human; settings: T = test unit (150 µM S-59, 3 Joules/cm^2 UVA, RD 8 hours on day 1)
Method: as §1

platelets [6] = test: Hypotonic shock response (HSR) of platelets; format: cell-based, human; settings: T = test unit (150 µM S-59, 3 Joules/cm^2 UVA, RD 8 hours on day 1)
Method: as §1

platelets [7] = test: Microvesicle formation of platelets; format: cell-based, human; settings: T = test unit (150 µM S-59, 3 Joules/cm^2 UVA, RD 8 hours on day 1)
Method: as §1

[8] = HPLC analysis of residual S-59 and photoproducts in PC after UVA and 8-hour treatment with RD containing Dowex XUS-43493; format: physicochemical
Method: Briefly, the assay involved an initial sample preparation which lyses the platelets and solubilizes the S-59 and photoproducts. The supernatant from the sample preparation was then analyzed on a C-18 reverse phase column with a gradient of increasing methanol in KH2PO4 buffer. The major peaks were detected by optical absorbance. […] Samples of the treated PC were then taken and subjected to HPLC for detection of residual S-59 and S-59 photoproducts. Post-incubation levels of photoproducts D, E, and F (S-59) are presented in Table N; photoproducts A, B, C, and G were not detectable by HPLC. Levels of residual photoproducts are average values taken from six independent, photochemically- and RD-treated platelet units. […] The PC was assayed for unbound photoproducts using the HPLC assay discussed above, which quantifies the photoproducts present both within the platelets and in the plasma/PAS III mixture. […] In addition to assaying the complete PC, samples were centrifuged to remove the platelets so that unbound photoproducts in the plasma/PAS III could be analyzed separately. […] To evaluate the efficacy of the RD for reducing the concentration of S-59. platelet samples from the test unit were analyzed for S-59 content by HPLC. […] The concentration of S-59 before and after UVA illumination and the reduction in the concentration of residual S-59 following RD treatment were measured by HPLC analysis. […]

With `Cc1oc2c(C)c3oc(=O)cc(C)c3cc2c1CN` [AMT, 4'-Aminomethyl-4,5',8-trimethylpsoralen, reference compound] the “genotoxic (toxic) dose” value [1] was 30 µg/mL.

In the case of `Cc1oc2c(C)c3oc(=O)cc(C)c3cc2c1COCCN` [Compound 2, 4'-(4-amino-2-oxa)butyl-4,5',8-trimethylpsoralen], the “(%) p-Selectin-Positive” value ([2]; Day 2) is reported as 49±5 %, the “(%) p-Selectin-Positive” value ([2]; Day 5) is reported as 58±5% and the “(%) p-Selectin-Positive” value ([2]; Day 7) is reported as 60±7%. For the same molecule, the “reduction in aggregation from the day 1 control” value (platelets [3]; 100 µM compound, 5 Joules/cm^2, 5 days storage (FIG. 21B)) was “approximately 8%”, the “(%) Aggregation” value (platelets [3]; Day 2) was 88±4% and the “(%) Aggregation” value (platelets [3]; Day 5) was 81±7%. The “(%) Aggregation” value (platelets [3]; Day 7) was 81±4%, the ATP (platelets [4]; Day 2) was 1.0±0.1 Nmoles Per 10* Platelets and the ATP (platelets [4]; Day 5) was 0.7±0.2 Nmoles Per 10* Platelets. The ATP (platelets [4]; Day 7) was 0.6±0.2 Nmoles Per 10* Platelets, the “Morphology (Out Of 400)” value (platelets [5]; Day 2) was 302±16 and the “Morphology (Out Of 400)” value (platelets [5]; Day 5) was 290±20. The “Morphology (Out Of 400)” value (platelets [5]; Day 7) was 274±12, the “(%) HSR” value (platelets [6]; Day 2) was 52±5 % and the “(%) HSR” value (platelets [6]; Day 5) was 45±3%. The “(%) HSR” value (platelets [6]; Day 7) was 48±8%, the “(%) Microvesicle Formation” value (platelets [7]; Day 2) was 0.9±0.2% and the “(%) Microvesicle Formation” value (platelets [7]; Day 5) was 0.8±0.2%. The “(%) Microvesicle Formation” value (platelets [7]; Day 7) was 1.7±1.7%, the “% Residual S- 59” value ([8]; Post 3 Joule/cm^2 UVA Illumination, of the initial S-59 remained unreacted) was 20.5 ± 2.3% and the “µM S-59” value ([8]; Pre-Treatment (0 Joule/cm^2), platelet concentrate, HPLC) was 145 ± 10 µM.
